# Values of other authors, collected in US11510960B2, “Biofilm disrupting composition for use on chronic wounds” (Whiteley Corporation Pty Ltd, priority 2016, dated 2022).
# Test system: P. aeruginosa biofilm from venous leg ulcers
substance,measurement,setting,value
gentamicin,reduction in concentration in relation to the control biofilm,"biofilm 24 hours post-debridement, antibiotic treatment",nine-fold
same,average log reduction in bacteria after antibiotic treatment,"mature (pre-study) biofilm, three patients with non-healing venous leg ulcers",4 log
